The record followed here is PubChem BioAssay (NCI).

Among the test systems are SK-MEL-28 melanoma; OVCAR-3 ovarian; NCI-H23 lung; SNB-19 CNS; KM12 colon; OVCAR-4 ovarian; HCT-116 colon; OVCAR-8 ovarian; UACC-62 melanoma; A498 renal.
Experiment in all cases: NCI tumour cell line growth inhibition, 48 h

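Where inhibition never reached the appropriate level, the endpoint shown equals the highest concentration tested. Otherwise, values were interpolated linearly from a five-concentration, 48-hour dose response in 96-well plates. At the TGI there is no net growth.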

Regarding `O=C1CNN=C(Cn2nc(-c3ccccc3)c3ccccc3c2=O)N1`, the TGI in the assay with SK-MEL-28 melanoma, in the assay with OVCAR-3 ovarian, with NCI-H23 lung, in the assay with SNB-19 CNS, with KM12 colon and in the assay with OVCAR-4 ovarian was more than 100 µM in each case. Also, the TGI with HCT-116 colon, with OVCAR-8 ovarian, in the assay with UACC-62 melanoma and in the assay with A498 renal was more than 100 µM in each case.
Turning to `NC(N)=NCCCC(NC(=O)c1c2ccccc2nc2ccccc12)C(=O)O` (stereo unspecified), the TGI with SK-MEL-28 melanoma, in the assay on OVCAR-3 ovarian, with NCI-H23 lung, in the assay on SNB-19 CNS, in the assay on KM12 colon and with OVCAR-4 ovarian was more than 100 µM each time. Further, the TGI in the assay on HCT-116 colon, in the assay on OVCAR-8 ovarian, with UACC-62 melanoma and in the assay on A498 renal was more than 100 µM throughout.
Turning to `Oc1ccc(SCc2cc(O)ccc2O)cc1`, the TGI in the assay on SK-MEL-28 melanoma was 46.7 µM; in the assay with OVCAR-3 ovarian, 22.4 µM; with NCI-H23 lung it was more than 100 µM; with SNB-19 CNS, more than 80.2 µM; in the assay with KM12 colon it was 46.9 µM; in the assay with OVCAR-4 ovarian, 18.5 µM. Further, the TGI was 26.1 µM in the assay with HCT-116 colon, 41.9 µM with OVCAR-8 ovarian, 53.2 µM in the assay on UACC-62 melanoma and more than 89.4 µM with A498 renal.
Consider `Cc1ccc2nc(C(=O)O)c(=O)[nH]c2c1`, for which the TGI in the assay with SK-MEL-28 melanoma, in the assay on OVCAR-3 ovarian, with NCI-H23 lung, with SNB-19 CNS, with KM12 colon and with OVCAR-4 ovarian was more than 100 µM each time. In addition, the TGI with HCT-116 colon, in the assay with OVCAR-8 ovarian, in the assay with UACC-62 melanoma and with A498 renal was more than 100 µM in each case.
With `CCOC(=O)C1C(c2ccc(OC)cc2)c2c([nH]n(-c3ccccc3)c2=O)CC1(C)O` (stereo unspecified), the TGI in the assay on SK-MEL-28 melanoma, with OVCAR-3 ovarian, with NCI-H23 lung, in the assay with SNB-19 CNS, in the assay on KM12 colon and in the assay on OVCAR-4 ovarian was more than 100 µM throughout. For the same compound, the TGI in the assay with HCT-116 colon, in the assay with OVCAR-8 ovarian, in the assay with UACC-62 melanoma and with A498 renal was more than 100 µM throughout.
In the case of `COc1ccc(/C=N/Nc2nnc3c(n2)c2ccccc2c2nn(-c4ccccc4Cl)nc23)cc1`, the TGI in the assay with SK-MEL-28 melanoma, with OVCAR-3 ovarian, in the assay on NCI-H23 lung, in the assay on SNB-19 CNS, in the assay on KM12 colon and with OVCAR-4 ovarian was more than 100 µM throughout. For the same compound, the TGI in the assay with HCT-116 colon, in the assay with OVCAR-8 ovarian, in the assay on UACC-62 melanoma and in the assay with A498 renal was more than 100 µM each time.
In the case of `CCc1cc2c(c3c1CCCC3=O)CC1(C2)Cc2cc(CC)c3c(c2C1)C(=O)CCC3`, the TGI in the assay with SK-MEL-28 melanoma, with OVCAR-3 ovarian, in the assay with NCI-H23 lung, in the assay with SNB-19 CNS, in the assay on KM12 colon and in the assay with OVCAR-4 ovarian was more than 100 µM each time. In addition, the TGI in the assay with HCT-116 colon, in the assay on OVCAR-8 ovarian and with A498 renal was more than 100 µM in each case.
For the compound `c1ccc(Nc2nnc(CCCCCCCCc3nnc(Nc4ccccc4)o3)o2)cc1`, the TGI with SK-MEL-28 melanoma, in the assay with OVCAR-3 ovarian, in the assay on NCI-H23 lung, in the assay with SNB-19 CNS, in the assay with KM12 colon and in the assay on OVCAR-4 ovarian was more than 100 µM throughout. The TGI in the assay on HCT-116 colon, in the assay on OVCAR-8 ovarian and in the assay on A498 renal was more than 100 µM throughout.
For `S=c1[nH]nc(CCCCCCCCc2n[nH]c(=S)o2)o1`, the TGI in the assay on SK-MEL-28 melanoma, in the assay with OVCAR-3 ovarian, with NCI-H23 lung, with SNB-19 CNS, with KM12 colon and in the assay on OVCAR-4 ovarian was more than 100 µM throughout. For the same compound, the TGI with HCT-116 colon, with OVCAR-8 ovarian and with A498 renal was more than 100 µM each time.
As to `C=CCOC(=O)N1c2ccc(O)cc2[C@@]23O[C@@]24[C@@H]1C#C/C=C\C#C[C@]3(O)C(=O)C[C@@H]4C`, the TGI in the assay on SK-MEL-28 melanoma was more than 100 µM; in the assay on NCI-H23 lung, more than 100 µM; in the assay on SNB-19 CNS, more than 100 µM; in the assay on KM12 colon, more than 100 µM; in the assay with OVCAR-4 ovarian it was 50.1 µM; in the assay with HCT-116 colon, more than 100 µM. The TGI with OVCAR-8 ovarian, with UACC-62 melanoma and with A498 renal was more than 100 µM in each case.
For `O=C(/C(=C/c1ccc(O)cc1)c1ccccc1)c1ccccc1`, the TGI with SK-MEL-28 melanoma worked out at 31.9 µM; in the assay on NCI-H23 lung, 30.7 µM; in the assay on KM12 colon, 29.1 µM; in the assay on OVCAR-4 ovarian, 55.2 µM; with HCT-116 colon it was 31.5 µM; with OVCAR-8 ovarian, 60 µM. Also, the values for the TGI with UACC-62 melanoma and in the assay on A498 renal were 27.1 µM and 32 µM, respectively.
With `C=CCN1C(=O)CC(=O)N(NC2=NNC3(C(=O)N2)c2ccccc2-c2ccccc23)C1=S`, the TGI in the assay with SK-MEL-28 melanoma, in the assay with OVCAR-3 ovarian, with NCI-H23 lung, in the assay on SNB-19 CNS, in the assay with OVCAR-4 ovarian and in the assay with HCT-116 colon was more than 100 µM throughout. For the same compound, the TGI in the assay with OVCAR-8 ovarian, with UACC-62 melanoma and with A498 renal was more than 100 µM each time.
For the compound `COc1ccc(C23OCC(Cc4cc(OC)c(OC)cc42)C3CO)cc1OC` (stereo unspecified), the TGI in the assay on SK-MEL-28 melanoma, in the assay with OVCAR-3 ovarian, in the assay on NCI-H23 lung, in the assay with SNB-19 CNS, in the assay with KM12 colon and with OVCAR-4 ovarian was more than 100 µM throughout. For the same compound, the TGI with HCT-116 colon, in the assay on UACC-62 melanoma and in the assay on A498 renal was more than 100 µM each time.
As for `Cc1cc(C)n2c(nc3ccccc32)c1C#N`, the TGI in the assay with SK-MEL-28 melanoma, in the assay with OVCAR-3 ovarian, with NCI-H23 lung, in the assay with SNB-19 CNS, in the assay with OVCAR-4 ovarian and in the assay with HCT-116 colon was more than 100 µM in each case. Moreover, the TGI in the assay on OVCAR-8 ovarian, in the assay with UACC-62 melanoma and in the assay with A498 renal was more than 100 µM throughout.
